Results: patent publication US11291719B2, “Methods and compositions for modulating Akt3” (Augusta University Research Institute, Inc., priority 2016, dated 2022)

Assays:
Akt3 = target: T1, Akt3 (Homo sapiens, UniProt Q9Y243); assay: Western blot of Akt3 in Tconv cells during iTreg induction; assay type: cell-based; conditions: TGF-β induced
T1 construct: endogenous in cells
Excerpt: FIG. 12 is a western blot showing the expression of FoxP3, pAkt3, Akt3, pAkt1, and Akt1 in activated Tconv cells induced with TGF-β and treated with various concentrations of mJJ64A.

iTregs = assay: Proliferation of activated iTregs; assay type: cell-based; conditions: TGF-β induced
Excerpt: FIGS. 13A-13H show histograms representing proliferation of activated iTregs induced with TGF-β and treated with various concentrations of mJJ64A. FIG. 13I is a bar graph showing percent proliferation of iTregs treated with various concentrations of mJJ64A. The X-axis represents concentration of mJJ64A. The Y-axis represents percent proliferation. FIG. 13J is a bar graph showing the percent of live cells in iTregs treated with various concentrations of mJJ64A. The X axis represents treatment and the Y axis represents percentage of live cells.

IL-10 = IL-10 production by nTregs; assay type: cell-based; conditions: percent IL-10+ FoxP3+ cells
Excerpt: FIG. 17 is a bar graph representing the percent of IL-10^+ FoxP3^+ cells in nTregs treated with various concentrations of mJJ64A.

Tregs [1] = assay: Percent of Tregs in EAE mice; assay type: in vivo, mouse; conditions: compared to untreated
Excerpt: FIGS. 25A-251 are bar graphs showing the percent of FoxP3^+ cells per CD4^+ T cells, FoxP3^− cells per CD4^+ T cells, and ROR^+ cells per CD4^+ T cells in the spleen (FIG. 25A-25C), blood (FIG. 25D-25F), and brain (FIG. 25G-251) of UT, iTreg, mJJ64A-3, mJJ64A-6 and mJJ64A-10 treated EAE mice. The X-axis represents treatment group and the Y-axis represents number of FoxP3^+ cells, FoxP3^−, or ROR^+ cells per CD4^+ cells.

Tregs [2] = assay: Percent of Tregs in Rag-/- mice; assay type: in vivo, mouse; conditions: compared to untreated
Excerpt: FIG. 22A is a bar graph showing the number of CD4^+ T cells per 10^6 live cells in the spleen of WT, UT, iTreg, mJJ64A, and mJJ64A treated iTreg treated Rag^−/− mice. The X-axis represents treatment group and the Y-axis represents number of CD4^+ cells per 10^6 live cells. FIG. 22B is a bar graph showing the percent of FoxP3^+ cells per CD4^+ T cells in the spleen of WT, UT, iTreg, mJJ64A, and mJJ64A treated iTreg treated Rag^−/− mice. The X-axis represents treatment group and the Y-axis represents number of FoxP3^+ cells per CD4^+ cells. FIG. 22C is a bar graph showing the percent of FoxP3^− cells per CD4^+ T cells in the spleen of WT, UT, iTreg, mJJ64A, and mJJ64A treated iTreg treated Rag^−/− mice. The X-axis represents treatment group and the Y-axis represents number of FoxP3^− cells per CD4^+ cells. FIG. 22D is a bar graph showing the number of CD4^+ T cells per 10^6 live cells in the lymph node of WT, UT, iTreg, mJJ64A, and mJJ64A treated iTreg treated Rag^−/− mice. The X-axis represents treatment group and the Y-axis represents number of CD4^+ cells per 10^6 live cells. FIG. 22E is a bar graph showing the percent of FoxP3^+ cells per CD4^+ T cells in the lymph node of WT, UT, iTreg, mJJ64A, and mJJ64A treated iTreg treated Rag^−/− mice. The X-axis represents treatment group and the Y-axis represents number of FoxP3^+ cells per CD4^+ cells. […]

nTregs = assay: Proliferation and viability of activated nTregs; assay type: cell-based
Excerpt: FIGS. 14A-14H is a set of histograms showing proliferation of activated nTregs treated with various concentrations of mJJ64A. FIG. […] is a bar graph showing percent proliferation of nTregs treated with various concentrations of mJJ64A. The X-axis represents treatment and the Y-axis represents percent proliferation. FIG. 13J is a bar graph showing the percent of live cells in nTregs treated with various concentrations of mJJ64A. The X-axis represents treatment and the Y-axis represents percentage of live cells.
(§1) FIGS. 16A-16L is a set of histograms showing the suppressive function of untreated and mJJ64A treated nTregs. The ratio of nTreg to Tconv cells is 0:1, 0.5:1, 1:1, 2:1, and 3:1.

mouse iTreg cells = assay: Suppressive function of mouse iTregs in vitro; assay type: cell-based; conditions: iTreg to Tconv ratios 0:1 to 2:1
Excerpt: FIGS. 15A-15J is a set of histograms showing the suppressive function of mouse iTregs in untreated and mJJ64A treated iTregs. The ratio of iTreg to Tconv cells was 0:1, 0.5:1, 1:1, and 2:1.

Akt1 pS473 = target: T2, Akt1 pS473 (Homo sapiens, UniProt P31749); assay: Akt1 phosphorylation in A2780 cells; assay type: cell-based; conditions: human ovarian carcinoma cells (A2780)
T2 construct: expression of Akt1 pS473, Akt2 pS474, Akt3 pS472, and Akt pan 5473,474,472 in A2780 cells; endogenous in cells; host or cells: A2780 human ovarian carcinoma cells
T2 sequence (P31749 whole entry): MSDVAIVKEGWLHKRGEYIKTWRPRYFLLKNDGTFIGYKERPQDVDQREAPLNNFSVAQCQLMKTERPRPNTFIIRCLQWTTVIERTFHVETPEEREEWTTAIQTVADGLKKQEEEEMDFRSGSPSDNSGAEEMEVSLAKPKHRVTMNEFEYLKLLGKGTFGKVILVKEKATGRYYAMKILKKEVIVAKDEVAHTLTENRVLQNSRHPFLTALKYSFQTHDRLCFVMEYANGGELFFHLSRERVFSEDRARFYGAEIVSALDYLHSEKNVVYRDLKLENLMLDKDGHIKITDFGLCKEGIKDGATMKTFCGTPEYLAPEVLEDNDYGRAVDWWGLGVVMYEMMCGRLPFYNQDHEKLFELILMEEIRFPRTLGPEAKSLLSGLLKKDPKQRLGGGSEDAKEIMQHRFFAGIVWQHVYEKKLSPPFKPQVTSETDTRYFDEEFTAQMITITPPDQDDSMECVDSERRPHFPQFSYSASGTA
Excerpt: FIG. 10 is a bar graph showing the effect of mJJ64A on the expression of Akt1 pS473, Akt2 pS474, Akt3 pS472, and Akt pan 5473,474,472 in A2780 cells compared to control. The Y axis represents integrated density value.

mouse nTregs cells = assay: Suppressive function of mouse nTregs in vitro; assay type: cell-based; conditions: nTreg to Tconv ratios 0:1 to 3:1
Excerpt: as §1

T1 sequence (Q9Y243 whole entry): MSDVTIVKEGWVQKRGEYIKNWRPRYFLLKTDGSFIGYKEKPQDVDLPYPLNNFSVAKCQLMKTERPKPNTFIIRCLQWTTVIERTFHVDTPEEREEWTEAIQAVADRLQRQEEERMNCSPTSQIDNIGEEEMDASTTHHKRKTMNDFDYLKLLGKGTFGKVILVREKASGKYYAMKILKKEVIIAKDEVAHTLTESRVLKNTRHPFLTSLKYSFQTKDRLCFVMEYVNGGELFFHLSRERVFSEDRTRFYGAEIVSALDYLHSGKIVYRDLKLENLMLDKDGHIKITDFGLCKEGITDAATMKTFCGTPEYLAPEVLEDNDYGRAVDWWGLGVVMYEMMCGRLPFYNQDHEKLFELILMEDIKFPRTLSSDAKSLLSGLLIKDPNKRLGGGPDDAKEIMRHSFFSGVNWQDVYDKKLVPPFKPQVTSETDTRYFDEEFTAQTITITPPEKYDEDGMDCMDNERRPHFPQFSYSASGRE

N#Cc1ccc2nccc(Nc3ccc(C(=O)Nc4ccc(Nc5ccncc5)cc4)cc3)c2c1 [Compound 2]
expression of Akt3 in Tconv cells during iTreg induction (Akt3): increased | proliferation of iTregs (iTregs): increased | IL-10 production by nTregs (IL-10): increased | percent of Tregs in the spleen, blood, and brain (Tregs [1]): increased | percent of Tregs in the spleen and mesenteric lymph nodes (Tregs [2]): increased | viability of nTregs (nTregs): without affecting | proliferation of nTregs (nTregs; activated nTregs): increased | suppressive function of mouse iTreg cells in vitro (mouse iTreg cells): increased | phosphorylation of Akt1 (Akt1 pS473): not | suppressive function of mouse nTregs cells in vitro (mouse nTregs cells): increased
